Article PMC12186844 (ACS Chemical Neuroscience, 2025)

Assays:
SNAP-D2SR S121^3.39A = target: T1, SNAP-D2SR S121^3.39A (Homo sapiens, UniProt P14416, S121A); assay: functional cAMP assay, BRET biosensor; assay type: cell-based
T1 sequence (P14416 1-414 isoform P14416-2 S121A): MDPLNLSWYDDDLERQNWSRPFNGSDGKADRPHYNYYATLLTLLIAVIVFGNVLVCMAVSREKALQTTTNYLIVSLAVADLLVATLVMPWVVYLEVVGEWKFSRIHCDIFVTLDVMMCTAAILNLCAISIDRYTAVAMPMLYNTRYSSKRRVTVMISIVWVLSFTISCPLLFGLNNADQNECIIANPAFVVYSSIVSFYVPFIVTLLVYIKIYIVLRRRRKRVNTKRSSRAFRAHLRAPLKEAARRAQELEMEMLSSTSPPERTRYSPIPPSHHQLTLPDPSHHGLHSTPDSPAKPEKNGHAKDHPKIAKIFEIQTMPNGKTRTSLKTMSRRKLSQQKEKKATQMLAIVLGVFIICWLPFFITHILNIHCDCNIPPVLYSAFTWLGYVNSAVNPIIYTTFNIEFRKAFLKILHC
Procedure: (§1) Flp-In-CHO cells stably coexpressing the CAMYEL biosensor and DRs were plated into white 96-well CulturPlates (Revvity) and grown overnight. The cells were equilibrated in Hank’s balanced salt solution (HBSS) at 37 °C (or 25 °C when indicated) before starting the experiment. The cells were costimulated with the agonists and 10 μM forskolin for the indicated time frames when the BRET readings were captured. Coelenterazine (Nanolight Technology, AZ) was added at a final concentration of 5 μM at least 3 min prior to measurement. […] Net BRET was determined by subtraction of the vehicle control coadded with 10 μM forskolin.
(§2) Dose–response curves were fitted using the following three-parameter equation: response=bottom+top−bottom/1+10^(logEC50−log[A]) 5 where top and bottom represent the maximal and minimal asymptote of the dose response curve, [A] is the molar concentration of the agonist, and EC50 is the molar concentration of the agonist required to give a response half-way between bottom and top.

D2R = target: T2, D2R (Homo sapiens, UniProt P14416); assay: D2R internalization whole cell ELISA; assay type: cell-based
T2 construct: expressed in transfected cells; host or cells: CHO cells stably overexpressing GRK2, transient

SNAP-D2SR W100^ECL1A = SNAP-D2SR W100^ECL1A (Homo sapiens, UniProt P14416, W100A); assay: functional cAMP assay, BRET biosensor; assay type: cell-based
Procedure: (§3) Flp-In-CHO cells stably coexpressing the CAMYEL biosensor and DRs were plated into white 96-well CulturPlates (Revvity) and grown overnight. The cells were equilibrated in Hank’s balanced salt solution (HBSS) at 37 °C (or 25 °C when indicated) before starting the experiment. The cells were costimulated with the agonists and 10 μM forskolin for the indicated time frames when the BRET readings were captured. Coelenterazine (Nanolight Technology, AZ) was added at a final concentration of 5 μM at least 3 min prior to measurement. […] Net BRET was determined by subtraction of the vehicle control coadded with 10 μM forskolin. For phenoxybenzamine alkylation experiments, the cells were treated with 0.1, 0.3, or 1 μM phenoxybenzamine (Sigma-Aldrich) diluted in HBSS and equilibrated at 37 °C for 30 min prior to the commencement of the assay.
as §2

SNAP-D2SR WT [1] = target: T3, SNAP-D2SR WT (Homo sapiens, UniProt P14416); assay: cell membrane [3H]spiperone assay
Procedure: (§4) Flp-In-CHO cells stably expressing the wild-type or mutant DRs were grown to 90% confluence in 175 cm^2 cell culture flasks. The cells were harvested in PBS containing 2 mM EDTA and centrifuged at 300g for 3 min. The resulting pellet was resuspended in ice-cold assay buffer (20 mM HEPES, 100 mM NaCl, 6 mM MgCl2, 1 mM EGTA, and 1 mM EDTA, pH 7.4), and the centrifugation step was repeated. The intact cell pellet was then resuspended in assay buffer and homogenized using a Polytron homogenizer. After centrifugation (1000g, 10 min), the pellet was discarded, and the supernatant was recentrifuged at 30,000g for 1 h at 4 °C using a Sorvall Evolution RC ultracentrifuge (Thermo Scientific). The resulting pellet was resuspended in assay buffer and stored in 250 μL aliquots at −80 °C. Membrane protein concentration was determined using a Pierce’s BCA protein assay kit (Thermo Fisher, Melbourne).
[^3H]­Spiperone binding experiments using cell membranes were conducted in a 200 μL reaction volume in assay buffer (20 mM HEPES, 100 mM NaCl, 6 mM MgCl2, 1 mM EGTA, and 1 mM EDTA, pH 7.4) containing 100 μM GppNHp and 0.1% ascorbic acid in 96-well plates. […] In all cases, nonspecific binding was determined in the presence of 10 μM haloperidol. To obtain affinity estimates of unlabeled agonists, competition binding experiments were performed at equilibrium. […] After this incubation period, bound and free radioligands were separated by fast-flow filtration through UniFilter-96 GF/B plates using a MicroBeta FilterMate harvester (Revvity) followed by three washes with ice-cold 0.9% NaCl. Filter bound radioactivity was detected as a chemiluminescence after the addition of MicroScint-20 (Revvity) in a MicroBeta plate counter (Revvity).
IC50 values obtained from the inhibition curves were converted to Ki values using the Cheng and Prusoff equation.

SNAP-D2SR I73^2.43A = SNAP-D2SR I73^2.43A (Homo sapiens, UniProt P14416, I73A); assay: cell membrane [3H]spiperone assay
Procedure: as §4
(§5) [^3H]­Spiperone binding experiments using cell membranes were conducted in a 200 μL reaction volume in assay buffer (20 mM HEPES, 100 mM NaCl, 6 mM MgCl2, 1 mM EGTA, and 1 mM EDTA, pH 7.4) containing 100 μM GppNHp and 0.1% ascorbic acid in 96-well plates. […] In all cases, nonspecific binding was determined in the presence of 10 μM haloperidol. […] Filter bound radioactivity was detected as a chemiluminescence after the addition of MicroScint-20 (Revvity) in a MicroBeta plate counter (Revvity). […]

SNAP-D2SR W384^7.40A = SNAP-D2SR W384^7.40A (Homo sapiens, UniProt P14416, W413A); assay: functional cAMP assay, BRET biosensor; assay type: cell-based
Procedure: as §3, §2

SNAP-D2SR T398^7.54A [2] = target: T4, SNAP-D2SR T398^7.54A (Homo sapiens, UniProt P14416, T427A); assay: cell membrane [3H]spiperone assay
Procedure: as §4, §5

SNAP-D2SR F353^6.44A = SNAP-D2SR F353^6.44A (Homo sapiens, UniProt P14416, F382A); assay: cell membrane [3H]spiperone assay
Procedure: as §4, §5

SNAP-D2SR L76^2.46A [3] = target: T5, SNAP-D2SR L76^2.46A (Homo sapiens, UniProt P14416, L76A); assay: cell membrane [3H]spiperone assay
Procedure: as §4, §5

SNAP-D2SR F408^8.54A = SNAP-D2SR F408^8.54A (Homo sapiens, UniProt P14416, F437A); assay: cell membrane [3H]spiperone assay
Procedure: as §4, §5

SNAP-D2SR WT [4] = target: T3, SNAP-D2SR WT; assay: functional cAMP assay, BRET biosensor; assay type: cell-based
Procedure: as §1, §2

D2LR = D2LR (Homo sapiens, UniProt P14416); assay: β-arrestin-2 recruitment BRET assay; assay type: cell-based
Procedure: Flp-In-CHO cells were seeded at a density of 2,000,000 cells per 10 cm dish and were transfected the following day using polyethylenimine as a transfection reagent. To assess β-arrestin-2 recruitment to the D2LR, the cells were transfected with 1 μg of Rluc8-tagged D2LR, 4 μg of YFP-β-arrestin-2, and 2 μg of GRK2. Twenty-four hours after transfection, the cells were plated into 96-well CulturPlates (PerkinElmer) and grown overnight. […] The cells were incubated with coelenterazine (Promega) at a final concentration of 5 μM for 5 min followed by stimulation with the agonists for an additional 5 min before the BRET readings were captured.

SNAP-D2SR N393^7.49A = SNAP-D2SR N393^7.49A (Homo sapiens, UniProt P14416, N422A); assay: cell membrane [3H]spiperone assay
Procedure: as §4, §5

SNAP-D2SR T398^7.54A [5] = target: T4, SNAP-D2SR T398^7.54A; assay: functional cAMP assay, BRET biosensor; assay type: cell-based; set-up: expressed in transfected cells
Procedure: as §1, §2

SNAP-D2SR L76^2.46A [6] = target: T5, SNAP-D2SR L76^2.46A; assay: functional cAMP assay, BRET biosensor; assay type: cell-based
Procedure: as §1, §2

SNAP-D2SR G51^1.49A = SNAP-D2SR G51^1.49A (Homo sapiens, UniProt P14416, G51A); assay: cell membrane [3H]spiperone assay
Procedure: as §4, §5

[7] = read-out: D2 PAM2 KB (converted)

T3 sequence (P14416 1-414 isoform P14416-2): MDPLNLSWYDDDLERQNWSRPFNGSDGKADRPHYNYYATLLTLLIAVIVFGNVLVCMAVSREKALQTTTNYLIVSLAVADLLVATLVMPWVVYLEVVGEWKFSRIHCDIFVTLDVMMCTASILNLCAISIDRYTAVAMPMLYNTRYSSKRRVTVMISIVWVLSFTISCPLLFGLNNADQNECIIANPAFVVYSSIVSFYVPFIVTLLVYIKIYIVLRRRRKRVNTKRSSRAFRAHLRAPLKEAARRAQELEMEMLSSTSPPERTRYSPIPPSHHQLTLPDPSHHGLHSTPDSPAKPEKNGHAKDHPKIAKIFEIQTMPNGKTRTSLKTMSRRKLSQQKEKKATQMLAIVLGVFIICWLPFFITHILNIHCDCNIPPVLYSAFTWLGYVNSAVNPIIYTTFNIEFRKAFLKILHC
T4 sequence (P14416 1-414 isoform P14416-2 T398A): as the sequence (P14416 1-414 isoform P14416-2) above, with T398A counted along it
T2 sequence (P14416 whole entry): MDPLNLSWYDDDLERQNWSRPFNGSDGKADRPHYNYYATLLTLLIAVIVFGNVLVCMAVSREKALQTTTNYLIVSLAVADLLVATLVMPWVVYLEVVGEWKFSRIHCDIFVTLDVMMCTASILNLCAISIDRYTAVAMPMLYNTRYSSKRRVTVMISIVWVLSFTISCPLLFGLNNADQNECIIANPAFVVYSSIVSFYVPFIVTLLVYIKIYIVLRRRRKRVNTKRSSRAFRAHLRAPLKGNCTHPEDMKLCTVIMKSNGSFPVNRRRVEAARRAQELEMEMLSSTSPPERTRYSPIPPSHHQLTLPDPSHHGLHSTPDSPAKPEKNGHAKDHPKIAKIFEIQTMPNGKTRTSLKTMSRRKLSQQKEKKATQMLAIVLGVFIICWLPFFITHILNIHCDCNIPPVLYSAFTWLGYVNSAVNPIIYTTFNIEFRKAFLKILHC
Sequence of D2LR (P14416 whole entry): as above
Sequence of SNAP-D2SR W384^7.40A (P14416 1-414 isoform P14416-2 W384A): as the sequence (P14416 1-414 isoform P14416-2) above, with W384A counted along it
T5 sequence (P14416 1-414 isoform P14416-2 L76A): as the sequence (P14416 1-414 isoform P14416-2) above, with L76A counted along it
Sequence of SNAP-D2SR W100^ECL1A (P14416 1-414 isoform P14416-2 W100A): as the sequence (P14416 1-414 isoform P14416-2) above, with W100A counted along it
Sequence of SNAP-D2SR F353^6.44A (P14416 1-414 isoform P14416-2 F353A): as the sequence (P14416 1-414 isoform P14416-2) above, with F353A counted along it
Sequence of SNAP-D2SR I73^2.43A (P14416 1-414 isoform P14416-2 I73A): as the sequence (P14416 1-414 isoform P14416-2) above, with I73A counted along it
Sequence of SNAP-D2SR F408^8.54A (P14416 1-414 isoform P14416-2 F408A): as the sequence (P14416 1-414 isoform P14416-2) above, with F408A counted along it
Sequence of SNAP-D2SR G51^1.49A (P14416 1-414 isoform P14416-2 G51A): as the sequence (P14416 1-414 isoform P14416-2) above, with G51A counted along it
Sequence of SNAP-D2SR N393^7.49A (P14416 1-414 isoform P14416-2 N393A): as the sequence (P14416 1-414 isoform P14416-2) above, with N393A counted along it

SMILES: COc1cc(CO)c(F)cc1C(=O)n1ccc2c(F)cccc21 [D2 PAM2, [5-fluoro-4-(hydroxymethyl)-2-methoxyphenyl]-(4-fluoro-1H-indol-1-yl)methanone]
- D2 PAM2 log τ (SNAP-D2SR S121^3.39A): –1.18 ± 0.15
- D2 PAM2 pKB (SNAP-D2SR S121^3.39A): 4.83 ± 0.11
- D2 PAM2 τ (SNAP-D2SR S121^3.39A): 0.06
- Kb (SNAP-D2SR S121^3.39A; [7]): 15 µM
- D2 PAM2 log αβ (SNAP-D2SR S121^3.39A; with DA): 1.14 ± 0.06
- D2 PAM2 αβ (SNAP-D2SR S121^3.39A; with DA): 14
- pKB (D2R): 5.30 ± 0.29
- LogτB (D2R; intrinsic efficacy): -2.20 ± 0.23
- Logαβ (D2R; with dopamine): 0.99 ± 0.21
- Kb (SNAP-D2SR W100^ECL1A): 11.7 µM
- Logτ (SNAP-D2SR W100^ECL1A): -0.43 ± 0.06
- pKB (SNAP-D2SR W100^ECL1A): 4.93 ± 0.28
- τ (SNAP-D2SR W100^ECL1A): 0.37
- Logαβ (SNAP-D2SR W100^ECL1A; with DA): 1.54 ± 0.10
- αβ (SNAP-D2SR W100^ECL1A; with DA): 34.7
- pKB (SNAP-D2SR WT [1]; [3H]spiperone competition binding interaction experiment): 5.04 ± 0.17
- Kb (SNAP-D2SR WT [1]; binding interaction experiment): 9 µM
- log α (SNAP-D2SR WT [1]; cooperativity with DA, binding): 1.05 ± 0.10
- α (SNAP-D2SR WT [1]; cooperativity with DA, binding): 11
- fold shift + 10 μM PAM (SNAP-D2SR WT [1]; shift of DA IC50): 9 fold
- ΔpIC50 + 10 μM PAM (SNAP-D2SR WT [1]; shift of DA pIC50): 0.97 ± 0.20
- fold shift + 10 μM PAM (SNAP-D2SR I73^2.43A; shift of DA IC50): 1.5 fold
- ΔpIC50 + 10 μM PAM (SNAP-D2SR I73^2.43A; shift of DA pIC50): 0.17 ± 0.09
- Kb (SNAP-D2SR W384^7.40A): 13.8 µM
- Logτ (SNAP-D2SR W384^7.40A): -0.24 ± 0.08
- pKB (SNAP-D2SR W384^7.40A): 4.86 ± 0.24
- τ (SNAP-D2SR W384^7.40A): 0.57
- Logαβ (SNAP-D2SR W384^7.40A; with DA): 1.04 ± 0.15
- αβ (SNAP-D2SR W384^7.40A; with DA): 11.0
- fold shift + 10 μM PAM (SNAP-D2SR T398^7.54A [2]; shift of DA IC50): 1 fold
- ΔpIC50 + 10 μM PAM (SNAP-D2SR T398^7.54A [2]; shift of DA pIC50): –0.01 ± 0.05
- fold shift + 10 μM PAM (SNAP-D2SR F353^6.44A; shift of DA IC50): 1.3 fold
- ΔpIC50 + 10 μM PAM (SNAP-D2SR F353^6.44A; shift of DA pIC50): 0.10 ± 0.12
- fold shift + 10 μM PAM (SNAP-D2SR L76^2.46A [3]; shift of DA IC50): 3.5 fold
- ΔpIC50 + 10 μM PAM (SNAP-D2SR L76^2.46A [3]; shift of DA pIC50): 0.55 ± 0.07
- fold shift + 10 μM PAM (SNAP-D2SR F408^8.54A; shift of DA IC50): 0.85 fold
- ΔpIC50 + 10 μM PAM (SNAP-D2SR F408^8.54A; shift of DA pIC50): –0.07 ± 0.14
- D2 PAM2 log τ (SNAP-D2SR WT [4]): 0.06 ± 0.05
- D2 PAM2 pKB (SNAP-D2SR WT [4]): 5.02 ± 0.14
- D2 PAM2 τ (SNAP-D2SR WT [4]): 1
- Logτ (SNAP-D2SR WT [4]; S13): 0.14 ± 0.10
- pKB (SNAP-D2SR WT [4]; S13): 4.93 ± 0.22
- τ (SNAP-D2SR WT [4]; S13): 1.38
- Kb (SNAP-D2SR WT [4]; S13, read-out: KB): 11.7 µM
- Logαβ (SNAP-D2SR WT [4]; S13, with DA): 1.60 ± 0.25
- αβ (SNAP-D2SR WT [4]; S13, with DA): 39.8
- Kb (SNAP-D2SR WT [4]; Table 2, read-out: D2 PAM2 KB (converted)): 9.5 µM
- D2 PAM2 log αβ (SNAP-D2SR WT [4]; with DA): 1.25 ± 0.14
- D2 PAM2 αβ (SNAP-D2SR WT [4]; with DA): 18
- pKB (D2LR): 5.18 ± 0.12
- LogτB (D2LR; intrinsic efficacy): -1.30 ± 0.16
- Logαβ (D2LR; with dopamine): 1.52 ± 0.12
- fold shift + 10 μM PAM (SNAP-D2SR N393^7.49A; shift of DA IC50): 0.8 fold
- ΔpIC50 + 10 μM PAM (SNAP-D2SR N393^7.49A; shift of DA pIC50): –0.08 ± 0.10
- D2 PAM2 log τ (SNAP-D2SR T398^7.54A [5]): –1.40 ± 0.22
- D2 PAM2 pKB (SNAP-D2SR T398^7.54A [5]): 5.35 ± 0.17
- D2 PAM2 τ (SNAP-D2SR T398^7.54A [5]): 0.04
- fold decrease in cooperativity with DA (SNAP-D2SR T398^7.54A [5]; cAMP): 6 fold
- Kb (SNAP-D2SR T398^7.54A [5]; [7]): 4 µM
- D2 PAM2 log αβ (SNAP-D2SR T398^7.54A [5]; with DA): 0.46 ± 0.05
- D2 PAM2 αβ (SNAP-D2SR T398^7.54A [5]; with DA): 2.9
- D2 PAM2 log τ (SNAP-D2SR L76^2.46A [6]): –3
- D2 PAM2 pKB (SNAP-D2SR L76^2.46A [6]): 5.52 ± 0.31
- fold decrease in cooperativity between D2 PAM2 and DA (SNAP-D2SR L76^2.46A [6]): 5 fold
- Kb (SNAP-D2SR L76^2.46A [6]; [7]): 3 µM
- D2 PAM2 log αβ (SNAP-D2SR L76^2.46A [6]; with DA): 0.56 ± 0.09
- D2 PAM2 αβ (SNAP-D2SR L76^2.46A [6]; with DA): 3.6
- fold shift + 10 μM PAM (SNAP-D2SR G51^1.49A; shift of DA IC50): 0.8 fold
- ΔpIC50 + 10 μM PAM (SNAP-D2SR G51^1.49A; shift of DA pIC50): –0.08 ± 0.17
